# Measured values taken from US8969413B2.
# Legend:
# [1] = tested on: Mice; assay: subcutaneous bicuculline (scBIC); assay type: in vivo; conditions: Single IP drug dose, 2.7 mg/kg BIC; from 10-200 mg/kg; inconclusive?
# Experimental: (§1) Bicuculline (Bic) and Picrotoxin (Pic) are chemoconvulsants that cause clonic seizures in a manner similar to Metrazol (see scMET test). […] Therefore, as much as possible it is useful to differentiate novel AEDs pharmacologically. […]. At a previously determined time of peak effect (TPE), the animals are given a subcutaneous injection of either of the noted chemo-convulsants using the convulsive dose (CD97—a dose of 2.7 or 2.5 mg/kg, for Bic and Pic, respectively). The experimental animals are placed in isolation cages to minimize possible crowding stresses (Swinyard et al., 1961) and observed for the next 30 minutes (for Bic) or 45 minutes (for Pic) for the presence or absence of a seizure. An episode of clonic spasms, approximately 3-5 seconds, of the fore and/or hindlimbs, jaws, or vibrissae is used as the experimental endpoint.
# [2] = tested on: cortical astrocytes; assay: [3H]GABA uptake in cultured cortical astrocytes; assay type: cell-based; conditions: Mus musculus, Astrocyte
# Experimental: (§2) Cortical astrocytes were cultured essentially as previously described. Hertz L, Juurlink B H J, Hertz E, Fosmark H and Schousboe A. Preparation of Primary Cultures of Mouse (Rat) Astrocytes, in A Dissection and Tissue Culture Manual of the Nervous System (Shahar A, de Vellis J, Vernadakis A and Haber B eds) pp 105-108, Alan R. Liss, Inc., New York, 1989 The neopallium was removed from new born NMRI mice (Taconic, Denmark) and passed through an 80 μm nylon sieve and cultured in modified Dulbecco's modified Eagle's medium with fetal calf serum. The calf serum was lowered from 20% to 10% over three weeks, and finally the astrocytes were allowed to differentiate using 0.25 mM dibutyryl cyclic AMP during the last week of growth.
# Cortical neurons were cultured essentially as previously described by removing the neopallium of 15-day old NMRI embryos by dissection followed by mild trypsination. Hertz E, Yu A C H, Hertz L, Juurlink B H J and Schousboe A. Preparation of Primary Cultures of Mouse Cortical Neurons, in A Dissection and Tissue Culture Manual of the Nervous System (Shahar A, de Vellis J, Vernadakis A and Haber B eds) pp 183-186, Alan R. Liss, Inc., New York, 198. […] Radioactivity was measured using Microscint™ 20 scintillation fluid (PerkinElmer) and a Packard TopCount microplate scintillation counter.
# [3] = target: GABAB receptor (Rattus norvegicus, UniProt Q9Z0U4); conditions: 100 μM, rat brain cortical homogenate
# [4] = target: T1, hGAT-2 (Homo sapiens, UniProt Q9NSD5); assay: [3H]GABA uptake at human GABA transporters, tsA201 cells; assay type: cell-based
# T1 construct: expressed in transfected cells; host or cells: tsA201 cells, transient (PolyFect)
# Experimental: (§3) tsA201 cells were cultured in GlutaMAX-I DMEM supplemented with 10% fetal bovine serum, penicillin (100 U/ml), and streptomycin (100 μg/ml) at 37° C. in a humidified atmosphere of 95% air and 5% CO2. […] J. Biol. Chem. 2007, 282, 19331-19341. […] Quantification was performed by using Microscint™ 20 scintillation fluid (PerkinElmer) and a Packard TopCount microplate scintillation counter.
# [5] = target: T2, hGAT-1 (Homo sapiens, UniProt P30531); assay: as above; assay type: cell-based
# T2 construct: expressed in transfected cells; host or cells: tsA201 cells, transient (PolyFect)
# Experimental: as §3
# [6] = target: T3, hGAT-3 (Homo sapiens, UniProt P48066); assay: as above; assay type: cell-based
# T3 construct: expressed in transfected cells; host or cells: tsA201 cells, transient (PolyFect)
# Experimental: as §3
# [7] = target: T4, hBGT-1 (Homo sapiens, UniProt P48065); assay: as above; assay type: cell-based
# T4 construct: expressed in transfected cells; host or cells: tsA201 cells, transient (PolyFect)
# Experimental: as §3
# [8] = tested on: GABA transporters in neurons, astrocytes, or mammalian cells recombinantly expressing human or mouse transporter subtypes; assay: [3H]GABA uptake, all transporter systems; assay type: cell-based; conditions: 1 mM concentration
# Experimental: as §3
# as §2, with “The calf serum was lowered from 20% to 10% over three weeks, and finally the astrocytes were allowed to differentiate using 0.25 mM dibutyryl cyclic AMP during the last week of growth.” left out
# Cortical neurons were cultured essentially as previously described by removing the neopallium of 15-day old NMRI embryos by dissection followed by mild trypsination. […] Radioactivity was measured using Microscint™ 20 scintillation fluid (PerkinElmer) and a Packard TopCount microplate scintillation counter.
# [9] = tested on: Mice; assay: minimal clonic seizure (6 Hz) test; assay type: in vivo; conditions: Single IP drug dose, 3 seconds, corneal electrode; for ED50: Mus musculus, ip
# Excerpt: Some clinically useful AEDs are ineffective in the standard MES and scMET tests but still have anticonvulsant activities in vivo. In order to identify potential AEDs with this profile, compounds may be tested in the minimal clonic seizure (6 Hz or ‘psychomotor’) test (Barton et al., 2001). […] Test compounds are pre-administered to mice via i.p. injection. At varying times, individual mice (four per time point) are challenged with sufficient current delivered through corneal electrodes to elicit a psychomotor seizure in 97% of animals (32 mA for 3 s) (Toman et al., 1952). Untreated mice will display seizures characterized by a minimal clonic phase followed by stereotyped, automatistic behaviors described originally as being similar to the aura of human patients with partial seizures. Animals not displaying this behavior are considered protected. The test may be evaluated quantitatively by measuring the responses at varying doses at a determined time of peak effect (TPE). This test may also be conducted at 22 and 44 mA if requested by ASP staff.
# [10] = tested on: GABAA receptor
# [11] = tested on: Mice; assay: maximal electrical shock (MES) model; assay type: in vivo; conditions: Single IP dose, 50 mA, 2 seconds, corneal electrode
# Excerpt: The MES is a model for generalized tonic-clonic seizures and provides an indication of a compound's ability to prevent seizure spread when all neuronal circuits in the brain are maximally active. These seizures are highly reproducible and are electrophysiologically consistent with human seizures. For all tests based on MES convulsions, 60 Hz of alternating current (50 mA in mice) is delivered for 2 s by corneal electrodes which have been primed with an electrolyte solution containing an anesthetic agent (0.5% tetracaine HCL). Mice are tested at various intervals following doses of 30, 100 and 300 mg/kg of test compound given by i.p. injection of a volume of 0.01 mL/g. Other doses can be used if indicated by previously known pharmacology. An animal is considered “protected” from MES-induced seizures upon abolition of the hindlimb tonic extensor component of the seizure (Swinyard et al., 1989; White et al., 1995a; White et al., 1995b).
# [12] = tested on: Mice; assay: subcutaneous picrotoxin (scPIC); assay type: in vivo
# Experimental: as §1
# T2 sequence (P30531 whole entry): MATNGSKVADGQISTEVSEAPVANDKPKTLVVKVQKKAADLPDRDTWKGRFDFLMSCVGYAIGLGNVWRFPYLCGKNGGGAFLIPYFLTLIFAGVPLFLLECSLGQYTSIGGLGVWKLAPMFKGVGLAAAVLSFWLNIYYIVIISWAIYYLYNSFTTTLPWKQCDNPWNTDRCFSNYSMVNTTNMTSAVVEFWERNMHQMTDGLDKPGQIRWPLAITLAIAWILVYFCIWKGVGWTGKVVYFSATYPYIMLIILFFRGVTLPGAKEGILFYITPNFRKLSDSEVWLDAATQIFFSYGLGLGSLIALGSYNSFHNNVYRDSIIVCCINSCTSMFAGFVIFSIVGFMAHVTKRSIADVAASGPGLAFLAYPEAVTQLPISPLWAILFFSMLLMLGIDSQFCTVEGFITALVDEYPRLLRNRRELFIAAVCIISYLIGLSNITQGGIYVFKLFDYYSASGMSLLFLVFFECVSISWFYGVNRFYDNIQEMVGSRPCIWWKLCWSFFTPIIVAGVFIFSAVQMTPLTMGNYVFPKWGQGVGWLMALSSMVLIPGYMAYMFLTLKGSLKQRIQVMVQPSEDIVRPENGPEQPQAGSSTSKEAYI
# T3 sequence (P48066 whole entry): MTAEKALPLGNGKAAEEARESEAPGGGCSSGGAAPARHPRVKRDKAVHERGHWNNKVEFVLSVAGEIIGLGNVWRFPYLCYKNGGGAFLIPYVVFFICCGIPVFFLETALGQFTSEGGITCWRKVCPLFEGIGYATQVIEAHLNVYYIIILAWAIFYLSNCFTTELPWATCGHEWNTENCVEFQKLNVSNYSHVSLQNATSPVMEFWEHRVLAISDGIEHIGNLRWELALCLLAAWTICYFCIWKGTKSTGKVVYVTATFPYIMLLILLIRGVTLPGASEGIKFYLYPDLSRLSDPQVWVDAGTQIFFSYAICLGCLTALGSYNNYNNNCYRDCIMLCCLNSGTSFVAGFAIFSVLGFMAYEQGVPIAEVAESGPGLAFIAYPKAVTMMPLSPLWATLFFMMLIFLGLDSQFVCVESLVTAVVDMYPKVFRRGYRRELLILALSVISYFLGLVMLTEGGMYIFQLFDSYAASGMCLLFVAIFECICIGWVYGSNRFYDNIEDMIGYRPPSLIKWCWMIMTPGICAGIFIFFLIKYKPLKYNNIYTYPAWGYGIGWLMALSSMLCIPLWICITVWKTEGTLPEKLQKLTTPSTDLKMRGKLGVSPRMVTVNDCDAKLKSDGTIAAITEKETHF
# T4 sequence (P48065 whole entry): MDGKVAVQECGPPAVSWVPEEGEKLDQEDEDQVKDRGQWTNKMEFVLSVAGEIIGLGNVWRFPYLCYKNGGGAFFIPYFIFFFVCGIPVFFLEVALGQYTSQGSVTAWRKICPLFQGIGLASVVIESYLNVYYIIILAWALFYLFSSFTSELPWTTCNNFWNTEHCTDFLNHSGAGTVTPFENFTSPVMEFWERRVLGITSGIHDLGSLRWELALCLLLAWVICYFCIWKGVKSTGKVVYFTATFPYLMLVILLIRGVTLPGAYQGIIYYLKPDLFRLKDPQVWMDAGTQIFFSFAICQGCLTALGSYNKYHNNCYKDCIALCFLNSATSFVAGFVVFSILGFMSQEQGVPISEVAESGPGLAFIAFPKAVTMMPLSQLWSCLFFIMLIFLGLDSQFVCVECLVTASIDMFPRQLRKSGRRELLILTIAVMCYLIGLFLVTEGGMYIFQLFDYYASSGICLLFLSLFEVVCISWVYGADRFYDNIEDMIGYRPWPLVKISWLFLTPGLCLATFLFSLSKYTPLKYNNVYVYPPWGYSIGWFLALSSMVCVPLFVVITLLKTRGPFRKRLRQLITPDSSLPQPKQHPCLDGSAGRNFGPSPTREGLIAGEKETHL
# T1 sequence (Q9NSD5 whole entry): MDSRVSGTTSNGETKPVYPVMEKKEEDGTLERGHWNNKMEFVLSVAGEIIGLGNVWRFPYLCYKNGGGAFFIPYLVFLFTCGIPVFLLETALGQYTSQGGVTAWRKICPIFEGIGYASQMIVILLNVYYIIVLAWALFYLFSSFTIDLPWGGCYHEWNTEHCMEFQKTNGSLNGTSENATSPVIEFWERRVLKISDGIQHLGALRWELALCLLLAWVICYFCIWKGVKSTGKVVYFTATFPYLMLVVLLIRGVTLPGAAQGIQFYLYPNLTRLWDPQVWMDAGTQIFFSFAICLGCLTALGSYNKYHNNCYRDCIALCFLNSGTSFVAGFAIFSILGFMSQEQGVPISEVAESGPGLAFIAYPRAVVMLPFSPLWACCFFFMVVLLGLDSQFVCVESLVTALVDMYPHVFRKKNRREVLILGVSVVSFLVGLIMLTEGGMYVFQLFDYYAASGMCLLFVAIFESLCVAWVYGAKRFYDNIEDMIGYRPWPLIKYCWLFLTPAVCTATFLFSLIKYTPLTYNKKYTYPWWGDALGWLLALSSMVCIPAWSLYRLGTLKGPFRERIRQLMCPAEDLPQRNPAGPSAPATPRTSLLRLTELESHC
# Chain of GABAB receptor (Q9Z0U4 17-960 limits assumed): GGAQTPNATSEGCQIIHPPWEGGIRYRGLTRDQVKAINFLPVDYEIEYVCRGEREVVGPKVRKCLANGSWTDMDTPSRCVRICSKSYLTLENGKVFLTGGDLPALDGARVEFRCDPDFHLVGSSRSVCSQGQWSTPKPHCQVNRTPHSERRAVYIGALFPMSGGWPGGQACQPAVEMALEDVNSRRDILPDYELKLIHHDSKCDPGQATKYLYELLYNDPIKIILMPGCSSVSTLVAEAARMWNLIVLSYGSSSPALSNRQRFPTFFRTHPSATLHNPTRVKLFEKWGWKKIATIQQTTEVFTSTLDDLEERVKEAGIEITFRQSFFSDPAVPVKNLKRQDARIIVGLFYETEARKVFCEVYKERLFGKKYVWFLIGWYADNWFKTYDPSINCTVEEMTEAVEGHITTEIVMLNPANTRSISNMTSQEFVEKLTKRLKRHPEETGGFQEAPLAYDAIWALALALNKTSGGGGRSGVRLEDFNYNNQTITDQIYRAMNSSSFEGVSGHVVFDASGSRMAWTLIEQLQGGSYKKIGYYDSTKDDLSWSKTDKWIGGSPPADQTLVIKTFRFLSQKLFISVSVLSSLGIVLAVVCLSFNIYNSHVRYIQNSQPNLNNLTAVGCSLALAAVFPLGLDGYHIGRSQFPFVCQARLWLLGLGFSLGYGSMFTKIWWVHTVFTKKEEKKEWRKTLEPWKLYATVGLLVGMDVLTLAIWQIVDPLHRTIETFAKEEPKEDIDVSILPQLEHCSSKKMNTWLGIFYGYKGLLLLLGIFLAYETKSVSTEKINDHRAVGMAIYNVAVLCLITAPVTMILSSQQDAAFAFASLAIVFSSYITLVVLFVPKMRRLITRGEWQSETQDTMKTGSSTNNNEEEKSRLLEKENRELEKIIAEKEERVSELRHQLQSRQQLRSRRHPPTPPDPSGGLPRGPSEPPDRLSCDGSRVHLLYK
# Chain of GABAB receptor (O88871 41-940 partner): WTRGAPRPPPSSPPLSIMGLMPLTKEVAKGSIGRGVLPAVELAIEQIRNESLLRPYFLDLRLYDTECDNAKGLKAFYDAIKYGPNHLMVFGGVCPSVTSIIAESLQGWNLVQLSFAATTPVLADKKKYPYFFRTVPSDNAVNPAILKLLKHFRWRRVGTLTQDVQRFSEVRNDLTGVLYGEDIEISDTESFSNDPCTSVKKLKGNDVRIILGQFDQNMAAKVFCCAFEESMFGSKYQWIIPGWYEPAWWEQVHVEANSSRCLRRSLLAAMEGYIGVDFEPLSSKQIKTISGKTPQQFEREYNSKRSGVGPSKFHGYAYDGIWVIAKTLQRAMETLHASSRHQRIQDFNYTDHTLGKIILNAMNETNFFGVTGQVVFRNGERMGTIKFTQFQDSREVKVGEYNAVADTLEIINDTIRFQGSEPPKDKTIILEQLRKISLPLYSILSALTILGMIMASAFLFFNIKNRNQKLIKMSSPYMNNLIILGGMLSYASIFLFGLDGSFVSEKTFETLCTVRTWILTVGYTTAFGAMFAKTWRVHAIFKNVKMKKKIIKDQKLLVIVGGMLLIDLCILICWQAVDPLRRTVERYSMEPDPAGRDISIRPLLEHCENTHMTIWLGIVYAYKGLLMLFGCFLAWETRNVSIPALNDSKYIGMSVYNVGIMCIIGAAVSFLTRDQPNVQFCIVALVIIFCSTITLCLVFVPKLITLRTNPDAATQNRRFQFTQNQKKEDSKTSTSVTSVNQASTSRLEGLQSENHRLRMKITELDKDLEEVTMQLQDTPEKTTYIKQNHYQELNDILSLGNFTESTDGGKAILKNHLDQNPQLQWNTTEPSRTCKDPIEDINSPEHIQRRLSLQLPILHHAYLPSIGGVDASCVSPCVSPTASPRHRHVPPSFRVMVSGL
structure (smiles),measurement,setting,value
N[C@H]1C[C@@H](C(=O)O)CC1=C(F)F [CPP-115],scBIC protected,[1],About 50% protected
same,IC50,[2],> 1 mM
same,inhibition of radioligand binding at GABAB receptors,[3],no inhibition of binding was observed
same,IC50,[4],> 1 mM
same,IC50,[5],> 1 mM
same,IC50,[6],> 1 mM
same,IC50,[7],> 1 mM
same,inhibitory activity at GABA transporters,[8],no inhibitory activity
same,ED50,[9]; 32 mA,5.2 mg/kg
same,ED50,[9]; 44 mA,28.4 mg/kg
same,6 Hz TPE,[9]; 32 mA,TPE 4 hours
same,6 Hz TPE,[9]; 44 mA,TPE 4 hours
same,inhibition of radioligand binding at GABAA receptors,"[10]; 100 μM, rat brain cortical homogenate",no inhibition of binding was observed
same,IC50,"[10]; read-out: [3H]muscimol competition (GABAA receptor) IC50, 5 nM [3H]muscimol, 0 °C, 60 min",> 0.1 mM
same,ED50,[11]; Mus musculus,58.9 mg/kg
same,MES TPE,[11],TPE 6 hours
same,ED50,"[12]; Mus musculus, ip, read-out: scPIC ED50",60.7 mg/kg
same,scPIC TPE,"[12]; Single IP drug dose, 2.5 mg/kg PIC",TPE 2 hours
